Assay results taken from PMC8733953, “Identifying specific matrix metalloproteinase-2-inhibiting peptides through phage display-based subtractive screening” (Turkish Journal of Biology, 2021).
“Also recorded” adds a separate entry of the source.

Tested on: HUVEC
Test: Wound-healing (cell migration) assay
Assay type: cell-based, human
Conditions: peptide 100 μM or EDTA 2 mM, 24 h
Description: For cell culture study, human umbilical vein endothelial cells (HUVECs; C2519A) were purchased from Lonza, Basel, Switzerland. The cells were cultured in endothelial complete media, which is composed of endothelial basal media EBM-2 (CC-3156, Lonza) supplemented with 1% penicillin (10,000 units/mL)- streptomycin (10,000 units/mL) (Gibco, Cat No 15140122) and endothelial cell growth medium 2 (EGM-2) SingleQuots (CC-4176, Lonza, Switzerland) containing growth factors (insulin-like growth factor, human fibroblast growth factor, human epidermal growth factor, and vascular endothelial growth factor), and supplements (ascorbic acid, heparin, hydrocortisone, and fetal bovine serum). Cell passage was carried out three times per week, considering the cell doubling time (Erdag et al., 2011). Cell migration was investigated using a wound-healing assay. HUVEC cells were detached from the cell culture flask using 0.25% trypsin-EDTA and harvested when cell confluence was approximately 70%–80%. After confirming that cell viability was at least 90%, the cells were suspended in complete medium to a density of 1 × 10^5 cells/mL. […] Wound areas were measured using the Gen5 software, and the relative wound area per time-point was calculated based on the wound at 0 h.

## O=C(O)CN(CCN(CC(=O)O)CC(=O)O)CC(=O)O [EDTA]
HUVEC monolayer scratched, relative to wound at 0 h, three independent experiments
  wound area still uncovered (wound opening area): 82%
HUVEC
  effect on wound healing (in words): no significant wound healing was observed; also recorded: twice the inhibition effect
